What is called IC50 is the concentration that inhibits the measured activity by half. Higher therefore signals weaker potency in that assay.

The values that follow come from BindingDB's records for doi:10.3109/14756366.2012.740477 (Solapur University, 2013).

This assay addresses Urease (Canavalia ensiformis, UniProt P07374). The experiment in a line: Urease Inhibition Assay. Particulars: pH 6.8; 30 °C. The method, then:
Mixture of 25 μL of urease enzyme (Jack bean) solution containing 1 unit of enzyme (1 unit = 0.02 mg of enzyme) was dissolved in phosphate buffer of pH 6.8, 55 μL of buffer containing 100 mM urea, and 5 μL of test compounds (0.5 mM concentration) was incubated at 30°C for 15 min in 96-well plates. Urease activity was determined by measuring ammonia production using the iodophenol method38. Briefly, 45 μL each of phenol reagent and 70 μL of alkali reagent were added to each well. The increase in absorbance at 630 nm was measured after 50 min, using a microplate reader (Molecular Device, CA, USA). All reactions were performed in triplicate in a final volume of 200 μL. The results (change in absorbance per min) were processed using Soft-Max Pro software (Molecular Device, CA, USA).

Sequence of Urease (P07374 whole entry): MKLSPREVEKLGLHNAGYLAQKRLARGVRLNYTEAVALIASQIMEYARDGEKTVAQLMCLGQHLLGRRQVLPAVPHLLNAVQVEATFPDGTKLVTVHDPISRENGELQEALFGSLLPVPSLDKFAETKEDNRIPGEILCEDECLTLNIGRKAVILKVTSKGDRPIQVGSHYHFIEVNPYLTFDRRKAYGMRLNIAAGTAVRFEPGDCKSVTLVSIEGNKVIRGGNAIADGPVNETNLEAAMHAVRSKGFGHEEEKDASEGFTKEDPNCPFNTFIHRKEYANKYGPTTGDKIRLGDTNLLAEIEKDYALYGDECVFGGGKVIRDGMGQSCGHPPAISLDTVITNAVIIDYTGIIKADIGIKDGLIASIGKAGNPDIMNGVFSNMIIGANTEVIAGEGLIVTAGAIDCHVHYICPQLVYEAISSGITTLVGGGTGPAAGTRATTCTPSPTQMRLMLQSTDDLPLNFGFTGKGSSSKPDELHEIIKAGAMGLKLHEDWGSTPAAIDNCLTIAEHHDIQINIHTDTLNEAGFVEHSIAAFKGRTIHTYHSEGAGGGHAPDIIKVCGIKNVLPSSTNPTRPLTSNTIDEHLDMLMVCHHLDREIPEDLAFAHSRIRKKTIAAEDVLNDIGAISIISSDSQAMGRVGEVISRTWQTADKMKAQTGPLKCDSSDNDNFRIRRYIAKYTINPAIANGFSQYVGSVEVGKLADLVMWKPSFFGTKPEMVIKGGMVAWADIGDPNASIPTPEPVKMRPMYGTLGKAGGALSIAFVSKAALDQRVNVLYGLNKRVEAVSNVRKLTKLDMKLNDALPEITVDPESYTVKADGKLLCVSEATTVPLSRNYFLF

`Cn1c2ccccc2c2cc(-c3cc(-c4ccc(Cl)cc4Cl)nc(N)n3)ccc21` [4-(2,4-Dichlorophenyl)-6-(9-methyl-9H-carbazol-3-yl)-pyrimidin-2-amine (5i)] yielded an IC50 of 19.4 µM. That is a double-digit micromolar value.

`Cn1c2ccccc2c2cc(-c3cc(-c4ccc(F)cc4F)nc(N)n3)ccc21` [4-(2,4-Difluorophenyl)-6-(9-methyl-9H-carbazol-3-yl)-pyrimidin-2-amine (5f)]: the half-inhibitory concentration (IC50) was found to be 40.2 µM. In the case of `Cn1c2ccccc2c2cc(-c3cc(-c4cc(Cl)ccc4Cl)nc(N)n3)ccc21` [4-(2,5-Dichlorophenyl)-6-(9-methyl-9H-carbazol-3-yl)-pyrimidin-2-amine (5k)], the IC50 is 28.1 µM. For the molecule `Cn1c2ccccc2c2cc(-c3cc(-c4ccc(Cl)c(Cl)c4)nc(N)n3)ccc21` [4-(3,4-Dichlorophenyl)-6-(9-methyl-9H-carbazol-3-yl)-pyrimidin-2-amine (5j)], the midpoint of inhibition, the IC50, lay at 23.2 µM.

`Cn1c2ccccc2c2cc(-c3cc(-c4ccc(F)c(F)c4)nc(N)n3)ccc21` [4-(3,4-Difluorophenyl)-6-(9-methyl-9H-carbazol-3-yl)-pyrimidin-2-amine (5g)]: half-maximal inhibition (IC50) was put at 45.2 µM. The result for `COc1ccc(-c2cc(-c3ccc4c(c3)c3ccccc3n4C)nc(N)n2)cc1OC` [4-(3,4-Dimethoxyphenyl)-6-(9-methyl-9H-carbazol-3-yl)-pyrimidin-2-amine (5c)] reads 30.7 µM. Regarding `Cn1c2ccccc2c2cc(-c3cc(-c4cccc(N)c4)nc(N)n3)ccc21` [4-(3-Aminophenyl)-6-(9-methyl-9H-carbazol-3-yl)-pyrimidin-2-amine (5p)], half-maximal inhibition (IC50) required 83.7 µM. The result for `Cn1c2ccccc2c2cc(-c3cc(-c4ccc(Br)cc4)nc(N)n3)ccc21` [4-(4-Bromophenyl)-6-(9-methyl-9H-carbazol-3-yl)-pyrimidin-2-amine (5l)] reads 95.1 µM; that for `Cn1c2ccccc2c2cc(-c3cc(-c4ccc(Cl)cc4)nc(N)n3)ccc21` [4-(4-Chlorophenyl)-6-(9-methyl-9H-carbazol-3-yl)-pyrimidin-2-amine (5h)], > 100 µM; that for `Cn1c2ccccc2c2cc(-c3cc(-c4ccc(F)cc4)nc(N)n3)ccc21` [4-(4-Fluorophenyl)-6-(9-methyl-9H-carbazol-3-yl)-pyrimidin-2-amine (5e)], > 100 µM. `COc1ccc(-c2cc(-c3ccc4c(c3)c3ccccc3n4C)nc(N)n2)cc1` [4-(4-Methoxyphenyl)-6-(9-methyl-9H-carbazol-3-yl)-pyrimidin-2-amine (5b)] displayed an IC50 of 95.4 µM. The molecule `COc1cc(OC)c(-c2cc(-c3ccc4c(c3)c3ccccc3n4C)nc(N)n2)c(OC)c1` [4-(9-Methyl-9H-carbazol-3-yl)-6-(2,4,6-trimethoxyphenyl)-pyrimidin-2-amine (5d)] showed an IC50 of 73.7 µM.

With `Cn1c2ccccc2c2cc(-c3cc(-c4ccc([N+](=O)[O-])cc4)nc(N)n3)ccc21` [4-(9-Methyl-9H-carbazol-3-yl)-6-(4-nitrophenyl)-pyrimidin-2-amine (5m)], the IC50 worked out at 87.2 µM. `Cn1c2ccccc2c2cc(-c3cc(-c4ccccn4)nc(N)n3)ccc21` [4-(9-Methyl-9H-carbazol-3-yl)-6-(pyridin-2-yl)-pyrimidin-2-amine (5o)]: the IC50 was > 100 µM. With `Cn1c2ccccc2c2cc(-c3cc(-c4cccs4)nc(N)n3)ccc21` [4-(9-Methyl-9H-carbazol-3-yl)-6-(thiophen-2-yl)-pyrimidin-2-amine (5n)], the IC50 was > 100 µM. The result for `Cn1c2ccccc2c2cc(-c3cc(-c4ccccc4)nc(N)n3)ccc21` [4-(9-Methyl-9H-carbazol-3-yl)-6-phenylpyrimidin-2-amine (5a)] reads > 100 µM.
